Common to all, as to format: cell-based
In one series the test system is HeLa. Put plainly: HIV-1 Rev assay toxicity/non-specificity readout (Firefly Luciferase). Conditions: 50% inhibition of Firefly Luciferase (toxicity/non-specificity), 24 hours; read-out: TC50 (the source's name). The method, then:
(§1) The eight compounds listed in Table 1 were also tested in an assay that measured HIV-1 Rev function. The HIV-1 Rev assay is based upon the use of a reporter for detecting whether drug candidates are capable of inhibiting the function of the viral Rev protein. The reporter used for these assays is the Renilla Luciferase protein, which is an enzyme that produces detectable light when mixed with certain chemicals. For this assay, a cell line has been developed in which the production of the reporter by the cells requires the function of HIV-1 Rev. Therefore, if a drug candidate inhibits the function of Rev, it decreases the amount of the reporter produced by the cells. By using Renilla Luciferase as the reporter, the inhibition of Rev is easily detected as a decrease in the amount of light produced by the cells when mixed with the appropriate chemicals. Furthermore, the cell line for this assay has been engineered to use a second similar reporter (Firefly Luciferase) that detects whether drug candidates are toxic.
(§2) Compounds were tested in the Rev assay using the maximum high-test concentration possible based on the supplied stocks as shown in Table 3. Compounds were prepared at a 2× high-test concentration by combining drug stock with tissue culture media at a ratio of 5 μL of drug to 995 μL of media. This 2× high-test sample was subsequently serially diluted in tissue culture media using 1/2 log dilutions. This series of 2× concentrated drug was subsequently diluted 1:1 by combining with an equal volume of cells in media in the 96-well plates used for the assay. Representative data for two of the compounds is also depicted in FIG. 5.
(§3) Leptomycin B is a control compound known to inhibit Rev function.

Another series relates to fresh human PBMCs. Nature of the series: MTS staining for PBMC viability to measure cytotoxicity. As for the experimental part: For the standard PBMC assay, PHA-P stimulated cells from at least two normal donors were pooled (mixed together), diluted in fresh medium to a final concentration of 1×10^6 cells/mL, and plated in the interior wells of a 96 well round bottom microplate at 50 μL/well (5×10^4 cells/well) in a standard format developed by the Infectious Disease Research department of Southern Research Institute. Pooling (mixing) of mononuclear cells from more than one donor is used to minimize the variability observed between individual donors, which results from quantitative and qualitative differences in HIV infection and overall response to the PHA and IL-2 of primary lymphocyte populations. Each plate contains virus/cell control wells (cells plus virus), experimental wells (drug plus cells plus virus) and compound control wells (drug plus media without cells, necessary for MTS monitoring of cytotoxicity). Since HIV-1 is not cytopathic to PBMCs, this allows the use of the same assay plate for both antiviral activity and cytotoxicity measurements. Test drug dilutions were prepared at a 2× concentration in microtiter tubes and 100 μL of each concentration was placed in appropriate wells using the standard format. 50 μL of a predetermined dilution of virus stock was placed in each test well (final MOI≅0.1). The PBMC cultures were maintained for seven days following infection at 37° C., 5% CO2. After this period, cell-free supernatant samples were collected for analysis of reverse transcriptase activity as a measure of virus release. Following removal of supernatant samples, compound cytotoxicity was measured by addition of MTS to the plates for determination of cell viability. Wells were also examined microscopically and any abnormalities were noted.
At assay termination, assay plates were stained with the soluble tetrazolium-based dye MTS (CellTiter 96 Reagent, Promega) to determine cell viability and quantify compound toxicity. The mitochondrial enzymes of metabolically active cells metabolize MTS to yield a soluble formazan product. This allows the rapid quantitative analysis of cell viability and compound cytotoxicity. […] At termination of the assay, 20 μL of MTS reagent was added per well. The microtiter plates were then incubated 4-6 hrs at 37° C. The incubation intervals were chosen based on empirically determined times for optimal dye reduction. Adhesive plate sealers were used in place of the lids, the sealed plate was inverted several times to mix the soluble formazan product and the plate was read spectrophotometrically at 490/650 nm with a Molecular Devices Vmax or SpectraMaxPlus plate reader.
Compounds were tested in the PBMC assay using the maximum high-test concentration possible based on the supplied stocks which are listed in table 3. Compounds were prepared at a 2× high-test concentration by combining drug stock with tissue culture media at a ratio of 5 μL of drug to 995 μL of media. This 2× high-test sample was subsequently serially diluted in tissue culture media using 1/2 log dilutions. This series of 2× concentrated drug was subsequently diluted 1:1 by combining with an equal volume of cells in media in the 96-well plates used for the assay.

For another series, the system named is U1 cells. Put plainly: MTS staining for cell viability in U1 cell assay. Conditions: Table 6, MTS, read-out: TC50 (the source's name). In outline: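 U1 cells plated with 5 ng/mL TNF-α (final) and compound in 1/2-log dilutions from the highest concentration the stock allowed, then cultured 3 days. Cytotoxicity read by MTS tetrazolium dye reduction at assay end. Assay dropped if Trypan Blue viability was below 70%.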

Series [1] can be described thus: HIV-1 Rev assay toxicity/non-specificity readout (Firefly Luciferase). The following applies: human. The method, then: as §1, §2, §3

The record followed here is patent US7875604B2, “Compounds that inhibit HIV particle formation” (University of Virginia Patent Foundation, priority 2004, dated 2011).

Like-named read-outs stand apart in the source and are kept apart here.

For “2-chloro-N-(4-methylphenyl)-4-(trifluoromethyl)-1,3-thazole-5-carboxamide [Compound 91161]”, the CC50 is above 39.5 µM in the series on HeLa; 23.3 µM in the series with fresh human PBMCs (PBMC plates with HIV-1 BR/93/021, MTS, read-out: TC50 (the source's name)); 13.5 µM with fresh human PBMCs (PBMC plates with HIV-1 NL4-3, MTS, read-out: TC50 (the source's name)); 22.3 µM in the series on U1 cells.
As to `CCc1c(C(=O)Nc2ccccc2)c(C)nc2sc(C(N)=O)c(N)c12` [Compound 75168, 3-amino-4-ethyl-6-methyl-N˜5˜-phenylthieno[2,3-b]pyridine-2,5-dicarboxamide], the CC50 at 24 hours in series [1] was 7.91 µM.
Turning to `COc1ccc2cc3c(N)n[nH]c3nc2c1` [Compound 89246, 7-methoxy-1H-pyrazolo[3,4-b]quinolin-3-ylamine], the CC50 at 24 hours in series [1] came out at 8.41 µM.
The compound `CCc1c(C)nc2sc(C(N)=O)c(N)c2c1C` [Compound 103833, 3-amino-5-ethyl-4,6-dimethylthieno[2,3-b]pyridine-2-carboxamide] showed a CC50 at 24 hours in series [1] above 37.6 µM. In the series with fresh human PBMCs (human, 7 days), this compound had a CC50 above 37.6 µM.
In the case of `COc1ccc2nc(C(F)(F)F)c(C#N)c(N)c2c1` [Compound 104366, 4-amino-6-methoxy-2-(trifluoromethyl)-3-quinolinecarbonitrile], in series [1] (50% inhibition of Firefly Luciferase (toxicity/non-specificity), 24 hours, read-out: TC50), the CC50 at 24 hours is 17.2 µM.
Compound `CS(=O)(=O)c1ncc(-c2ccc(Br)cc2)cn1` [Compound 107129, -(4-bromophenyl)-2-(methylsulfonyl)pyrimidine] showed a CC50 at 24 hours in series [1] of 30.9 µM.
Still for that read-out and setting: the result for `COc1cccc(NC(=O)c2cc(Cl)nnc2Cl)c1` [Compound 107740, 3,6-dichloro-N-(3-methoxyphenyl)-4-pyridazinecarboxamide] reads 18.5 µM.
Turning to `Fc1ccc(Nc2ncnc3ccccc23)cc1Cl` [Compound 109020, N-(3-chloro-4-fluorophenyl)-N-(4-quinazolinyl)amine], in series [1], the CC50 at 24 hours was above 40.8 µM. This compound had a CC50 with fresh human PBMCs (human, 7 days) above 40.8 µM.
